Reference: patent publication US8926083B2, “Polymerizable ink composition, ink cartridge, and inkjet printer” (Ricoh Company, Ltd., priority 2012, dated 2015)
Where two headings read alike, the source gives them in different places.

Experiments:
[1] = statement of the material safety data sheet; cited from earlier work
[2] = Skin sensitization test according to Local Lymph Node Assay (LLNA) method, Stimulation Index (SI); conditions: LLNA method (OECD test guideline 429), SI less than 3 = no skin sensitization problem
[3] = in vivo

Row | Compound | SI value [2] | other results
1 | C=CC(=O)OCC(CC)(COC(=O)C=C)COC(=O)C=C [Trimethylol propane triacrylate (M-309), Trimethylol propane triacrylate] |  | skin sensitization as mentioned in MSDS [1]: Toagosei Company, Limited, skin sensitization causing
2 | Diacrylate of caprolactone-modified hydroxy pivalic acid neopentyl glyco | manufactured by Nippon Kayaku Co., Ltd., SI Value = 0.9): | 
3 | Polypropylene glycol (n = 9) dimethacrylate |  | SI value [3]: 1.3):
4 | C=CC(=O)OCC(CC)(COC(=O)C=C)COC(=O)C=C [Trimethylol propane triacrylate (SR-350), Trimethylol propane triacrylate] | 1.9): | 
5 | C=C(C)C(=O)OCCCCOC(=O)C(=C)C [1,4-butane diol dimethacrylate] | 2.6): | 
